“And” between values parts separate entries of the source, which are not always exact repeats. Equal values may be shown once.
Experiments:
Assay type in all cases: cell-based
[1] = molecular target: T1, 318 nonolfactory human GPCRs (Homo sapiens, UniProt O00222); settings: GRM8; C21 5 µM
T1 construct: expressed in transfected cells; host or cells: HTLA cells, transient

[2] = molecular target: 318 nonolfactory human GPCRs (Homo sapiens, UniProt P07550); settings: ADRB2; C21 5 µM
[3] = molecular target: 318 nonolfactory human GPCRs (Homo sapiens, UniProt P14416); settings: DRD2; C21 5 µM
Sequence of 318 nonolfactory human GPCRs (Homo sapiens, UniProt P14416) (P14416 whole entry): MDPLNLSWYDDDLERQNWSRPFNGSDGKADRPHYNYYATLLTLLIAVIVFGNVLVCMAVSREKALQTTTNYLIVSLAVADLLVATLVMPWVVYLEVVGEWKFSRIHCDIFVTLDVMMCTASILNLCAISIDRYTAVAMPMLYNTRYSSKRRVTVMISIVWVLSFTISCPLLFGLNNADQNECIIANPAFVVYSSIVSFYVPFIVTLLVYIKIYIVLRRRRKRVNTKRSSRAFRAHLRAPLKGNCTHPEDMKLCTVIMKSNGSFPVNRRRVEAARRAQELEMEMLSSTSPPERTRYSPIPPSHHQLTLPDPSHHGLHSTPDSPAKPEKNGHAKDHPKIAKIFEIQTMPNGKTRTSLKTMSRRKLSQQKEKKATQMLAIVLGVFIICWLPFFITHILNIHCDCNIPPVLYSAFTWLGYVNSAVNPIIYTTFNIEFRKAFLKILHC

[4] = molecular target: 318 nonolfactory human GPCRs (Homo sapiens, UniProt P25090); settings: FPR2; C21 5 µM
[5] = molecular target: 318 nonolfactory human GPCRs (Homo sapiens, UniProt P25103); settings: TACR1; C21 5 µM
Sequence of 318 nonolfactory human GPCRs (Homo sapiens, UniProt P25103) (P25103 whole entry): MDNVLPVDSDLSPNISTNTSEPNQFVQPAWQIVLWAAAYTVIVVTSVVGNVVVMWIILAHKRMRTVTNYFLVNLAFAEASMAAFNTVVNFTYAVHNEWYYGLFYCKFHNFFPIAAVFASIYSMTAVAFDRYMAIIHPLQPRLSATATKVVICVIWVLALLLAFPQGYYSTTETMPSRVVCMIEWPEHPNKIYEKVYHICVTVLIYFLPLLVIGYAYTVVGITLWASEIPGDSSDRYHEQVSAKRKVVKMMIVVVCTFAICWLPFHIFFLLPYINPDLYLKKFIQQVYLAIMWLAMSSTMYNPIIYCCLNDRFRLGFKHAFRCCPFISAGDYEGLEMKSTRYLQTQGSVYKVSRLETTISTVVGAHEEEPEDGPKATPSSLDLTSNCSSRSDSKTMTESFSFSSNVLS

[6] = molecular target: T2, 318 nonolfactory human GPCRs (Homo sapiens, UniProt P29371); settings: TACR3; C21 5 µM
T2 construct: expressed in transfected cells; host or cells: HTLA cells, transient

[7] = molecular target: T3, 318 nonolfactory human GPCRs (Homo sapiens, UniProt P30968); settings: GNRHR; C21 5 µM
T3 construct: expressed in transfected cells; host or cells: HTLA cells, transient

[8] = molecular target: 318 nonolfactory human GPCRs (Homo sapiens, UniProt P30989); settings: NTSR1; C21 5 µM
[9] = molecular target: T4, 318 nonolfactory human GPCRs (Homo sapiens, UniProt P32248); settings: CCR7; C21 5 µM
T4 construct: expressed in transfected cells; host or cells: HTLA cells, transient
T4 sequence (P32248 25-378): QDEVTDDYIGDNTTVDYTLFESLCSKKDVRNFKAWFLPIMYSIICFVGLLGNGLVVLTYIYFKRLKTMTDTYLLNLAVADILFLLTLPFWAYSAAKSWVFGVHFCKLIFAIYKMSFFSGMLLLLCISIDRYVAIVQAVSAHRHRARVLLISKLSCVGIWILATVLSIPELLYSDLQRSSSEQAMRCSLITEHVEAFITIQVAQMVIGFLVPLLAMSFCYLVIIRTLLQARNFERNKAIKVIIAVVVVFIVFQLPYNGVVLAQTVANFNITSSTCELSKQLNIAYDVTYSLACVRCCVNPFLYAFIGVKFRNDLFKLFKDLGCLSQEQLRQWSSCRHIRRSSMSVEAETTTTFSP

[10] = molecular target: T5, 318 nonolfactory human GPCRs (Homo sapiens, UniProt P34998); settings: CRHR1; C21 5 µM
T5 construct: expressed in transfected cells; host or cells: HTLA cells, transient
T5 sequence (P34998 24-415): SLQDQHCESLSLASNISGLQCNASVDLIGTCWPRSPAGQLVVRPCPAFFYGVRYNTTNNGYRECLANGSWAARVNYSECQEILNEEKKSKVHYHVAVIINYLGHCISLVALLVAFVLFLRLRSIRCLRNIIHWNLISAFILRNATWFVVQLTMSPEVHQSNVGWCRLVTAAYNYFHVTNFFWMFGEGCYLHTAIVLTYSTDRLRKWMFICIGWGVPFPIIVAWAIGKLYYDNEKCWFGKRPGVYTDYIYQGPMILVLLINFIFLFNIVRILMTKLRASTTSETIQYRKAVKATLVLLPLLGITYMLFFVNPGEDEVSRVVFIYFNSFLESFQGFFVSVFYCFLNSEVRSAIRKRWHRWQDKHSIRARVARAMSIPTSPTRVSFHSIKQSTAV

[11] = molecular target: T6, 318 nonolfactory human GPCRs (Homo sapiens, UniProt P35410); settings: MAS1L; C21 5 µM
T6 construct: expressed in transfected cells; host or cells: HTLA cells, transient

[12] = molecular target: T7, 318 nonolfactory human GPCRs (Homo sapiens, UniProt P41231); settings: P2RY2; C21 5 µM
T7 construct: expressed in transfected cells; host or cells: HTLA cells, transient

[13] = molecular target: T8, 318 nonolfactory human GPCRs (Homo sapiens, UniProt P41587); settings: VIPR2; C21 5 µM
T8 construct: expressed in transfected cells; host or cells: HTLA cells, transient
T8 sequence (P41587 24-438): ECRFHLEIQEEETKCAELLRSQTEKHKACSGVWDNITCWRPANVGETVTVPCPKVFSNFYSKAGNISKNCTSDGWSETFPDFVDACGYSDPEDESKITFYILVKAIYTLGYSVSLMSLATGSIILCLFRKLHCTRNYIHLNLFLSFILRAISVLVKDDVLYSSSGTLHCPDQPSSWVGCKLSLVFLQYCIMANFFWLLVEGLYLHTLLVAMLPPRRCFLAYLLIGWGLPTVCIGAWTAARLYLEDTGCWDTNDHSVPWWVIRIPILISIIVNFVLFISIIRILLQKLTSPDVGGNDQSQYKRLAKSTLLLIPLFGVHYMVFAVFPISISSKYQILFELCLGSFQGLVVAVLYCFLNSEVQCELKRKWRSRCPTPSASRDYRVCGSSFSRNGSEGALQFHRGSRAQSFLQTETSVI

[14] = molecular target: T9, 318 nonolfactory human GPCRs (Homo sapiens, UniProt P43115); settings: PTGER3; C21 5 µM
T9 construct: expressed in transfected cells; host or cells: HTLA cells, transient

[15] = molecular target: T10, 318 nonolfactory human GPCRs (Homo sapiens, UniProt P46091); settings: GPR1; C21 5 µM
T10 construct: expressed in transfected cells; host or cells: HTLA cells, transient

[16] = molecular target: T11, 318 nonolfactory human GPCRs (Homo sapiens, UniProt P49238); settings: CX3CR1; C21 5 µM
T11 construct: expressed in transfected cells; host or cells: HTLA cells, transient
T11 sequence (P49238 whole entry): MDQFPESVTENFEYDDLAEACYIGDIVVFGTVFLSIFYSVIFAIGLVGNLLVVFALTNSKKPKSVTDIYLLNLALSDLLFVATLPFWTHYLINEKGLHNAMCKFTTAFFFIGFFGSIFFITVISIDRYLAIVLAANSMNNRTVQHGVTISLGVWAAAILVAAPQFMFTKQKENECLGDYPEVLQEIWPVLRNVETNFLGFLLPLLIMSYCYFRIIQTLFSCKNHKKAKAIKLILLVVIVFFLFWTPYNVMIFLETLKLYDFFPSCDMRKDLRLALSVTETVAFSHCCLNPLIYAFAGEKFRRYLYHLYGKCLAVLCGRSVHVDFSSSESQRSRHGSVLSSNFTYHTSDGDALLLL

[17] = molecular target: T12, 318 nonolfactory human GPCRs (Homo sapiens, UniProt P51685); settings: CCR8; C21 5 µM
T12 construct: expressed in transfected cells; host or cells: HTLA cells, transient

[18] = molecular target: T13, 318 nonolfactory human GPCRs (Homo sapiens, UniProt Q14416); settings: GMR2; C21 5 µM
T13 construct: expressed in transfected cells; host or cells: HTLA cells, transient
T13 sequence (Q14416 19-872): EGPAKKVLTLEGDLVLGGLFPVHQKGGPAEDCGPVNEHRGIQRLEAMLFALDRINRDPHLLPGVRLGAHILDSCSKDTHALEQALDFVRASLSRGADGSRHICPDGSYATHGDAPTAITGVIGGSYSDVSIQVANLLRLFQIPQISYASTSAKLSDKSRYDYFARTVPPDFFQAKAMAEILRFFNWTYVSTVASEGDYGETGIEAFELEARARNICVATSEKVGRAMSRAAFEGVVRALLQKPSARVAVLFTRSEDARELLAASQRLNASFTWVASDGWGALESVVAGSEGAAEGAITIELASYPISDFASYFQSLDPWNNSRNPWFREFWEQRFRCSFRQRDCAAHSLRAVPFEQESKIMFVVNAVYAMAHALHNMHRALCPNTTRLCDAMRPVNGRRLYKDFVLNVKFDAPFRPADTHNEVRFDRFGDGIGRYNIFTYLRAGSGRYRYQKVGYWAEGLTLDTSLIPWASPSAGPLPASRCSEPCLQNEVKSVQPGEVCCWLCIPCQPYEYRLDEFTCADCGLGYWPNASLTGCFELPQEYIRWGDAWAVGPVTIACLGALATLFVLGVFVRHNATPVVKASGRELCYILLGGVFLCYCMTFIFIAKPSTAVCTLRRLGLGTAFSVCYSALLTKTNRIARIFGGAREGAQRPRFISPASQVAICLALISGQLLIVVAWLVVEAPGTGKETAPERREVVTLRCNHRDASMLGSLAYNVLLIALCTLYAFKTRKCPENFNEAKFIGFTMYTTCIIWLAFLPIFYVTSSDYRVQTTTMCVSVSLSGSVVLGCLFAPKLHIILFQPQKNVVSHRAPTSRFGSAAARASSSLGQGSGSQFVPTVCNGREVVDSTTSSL

[19] = molecular target: T14, 318 nonolfactory human GPCRs (Homo sapiens, UniProt Q15077); settings: P2RY6; C21 5 µM
T14 construct: expressed in transfected cells; host or cells: HTLA cells, transient

[20] = molecular target: 318 nonolfactory human GPCRs (Homo sapiens, UniProt Q15743); settings: GPR68; C21 5 µM
[21] = molecular target: T15, 318 nonolfactory human GPCRs (Homo sapiens, UniProt Q86SM8); settings: MRGPRE; C21 5 µM
T15 construct: expressed in transfected cells; host or cells: HTLA cells, transient

[22] = molecular target: T16, 318 nonolfactory human GPCRs (Homo sapiens, UniProt Q8NDV2); settings: GPR26; C21 5 µM
T16 construct: expressed in transfected cells; host or cells: HTLA cells, transient
T16 sequence (Q8NDV2 whole entry): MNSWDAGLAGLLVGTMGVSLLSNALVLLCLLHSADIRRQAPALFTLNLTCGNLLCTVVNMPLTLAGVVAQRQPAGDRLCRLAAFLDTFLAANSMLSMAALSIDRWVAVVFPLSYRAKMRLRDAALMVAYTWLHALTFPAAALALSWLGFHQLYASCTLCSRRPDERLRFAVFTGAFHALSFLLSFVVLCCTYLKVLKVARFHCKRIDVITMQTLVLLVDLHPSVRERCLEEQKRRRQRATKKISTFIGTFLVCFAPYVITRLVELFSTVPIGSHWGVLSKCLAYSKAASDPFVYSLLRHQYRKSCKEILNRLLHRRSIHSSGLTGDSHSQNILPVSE

[23] = molecular target: T17, 318 nonolfactory human GPCRs (Homo sapiens, UniProt Q8NFJ6); settings: PK2; C21 5 µM
T17 construct: expressed in transfected cells; host or cells: HTLA cells, transient
T17 sequence (Q8NFJ6 whole entry): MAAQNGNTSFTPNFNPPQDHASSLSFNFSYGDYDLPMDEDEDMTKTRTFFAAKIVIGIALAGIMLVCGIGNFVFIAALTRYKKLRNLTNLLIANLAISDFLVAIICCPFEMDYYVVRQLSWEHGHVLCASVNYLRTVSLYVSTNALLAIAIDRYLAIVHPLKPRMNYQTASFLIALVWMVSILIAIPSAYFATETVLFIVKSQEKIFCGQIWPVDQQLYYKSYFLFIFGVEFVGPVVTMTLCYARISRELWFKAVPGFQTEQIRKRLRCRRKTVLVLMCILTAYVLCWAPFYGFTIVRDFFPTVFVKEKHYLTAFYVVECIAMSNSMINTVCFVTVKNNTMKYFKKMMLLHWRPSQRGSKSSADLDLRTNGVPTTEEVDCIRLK

[24] = molecular target: T18, 318 nonolfactory human GPCRs (Homo sapiens, UniProt Q8NGU9); settings: GPR150; C21 5 µM
T18 construct: expressed in transfected cells; host or cells: HTLA cells, transient

[25] = molecular target: T19, 318 nonolfactory human GPCRs (Homo sapiens, UniProt Q8TDT2); settings: GPR152; C21 5 µM
T19 construct: expressed in transfected cells; host or cells: HTLA cells, transient
T19 sequence (Q8TDT2 whole entry): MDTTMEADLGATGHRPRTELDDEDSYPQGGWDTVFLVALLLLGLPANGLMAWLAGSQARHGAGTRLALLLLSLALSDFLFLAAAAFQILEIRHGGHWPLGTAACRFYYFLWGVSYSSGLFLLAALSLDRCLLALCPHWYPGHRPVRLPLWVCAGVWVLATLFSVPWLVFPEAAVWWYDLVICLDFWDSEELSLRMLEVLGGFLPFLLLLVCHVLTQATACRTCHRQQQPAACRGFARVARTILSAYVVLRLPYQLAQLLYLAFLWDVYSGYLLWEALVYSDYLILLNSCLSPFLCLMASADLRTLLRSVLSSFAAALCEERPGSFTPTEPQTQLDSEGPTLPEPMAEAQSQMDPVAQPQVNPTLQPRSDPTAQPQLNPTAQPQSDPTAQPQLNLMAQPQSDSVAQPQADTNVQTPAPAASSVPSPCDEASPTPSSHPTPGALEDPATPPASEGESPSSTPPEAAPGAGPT

[26] = molecular target: T20, 318 nonolfactory human GPCRs (Homo sapiens, UniProt Q8TDV0); settings: GPR151; C21 5 µM
T20 construct: expressed in transfected cells; host or cells: HTLA cells, transient

[27] = molecular target: T21, 318 nonolfactory human GPCRs (Homo sapiens, UniProt Q96AM1); settings: MRGPRF; C21 5 µM
T21 construct: expressed in transfected cells; host or cells: HTLA cells, transient

[28] = molecular target: 318 nonolfactory human GPCRs (Homo sapiens, UniProt Q99500); settings: S1PR3; C21 5 µM
[29] = molecular target: T22, 318 nonolfactory human GPCRs (Homo sapiens, UniProt Q9HBW9); settings: ELTD1; C21 5 µM
T22 construct: expressed in transfected cells; host or cells: HTLA cells, transient

[30] = molecular target: T23, 318 nonolfactory human GPCRs (Homo sapiens, UniProt Q9HBX9); settings: RXFP1; C21 5 µM
T23 construct: expressed in transfected cells; host or cells: HTLA cells, transient

[31] = molecular target: T24, 318 nonolfactory human GPCRs (Homo sapiens, UniProt Q9HC97); settings: GPR35; C21 5 µM
T24 construct: expressed in transfected cells; host or cells: HTLA cells, transient

[32] = molecular target: T25, 318 nonolfactory human GPCRs (Homo sapiens, UniProt Q9P296); settings: GPR77; C21 5 µM
T25 construct: expressed in transfected cells; host or cells: HTLA cells, transient

[33] = molecular target: T26, 318 nonolfactory human GPCRs (Homo sapiens, UniProt Q9Y2T5); settings: GPR52; C21 5 µM
T26 construct: expressed in transfected cells; host or cells: HTLA cells, transient
T26 sequence (Q9Y2T5 whole entry): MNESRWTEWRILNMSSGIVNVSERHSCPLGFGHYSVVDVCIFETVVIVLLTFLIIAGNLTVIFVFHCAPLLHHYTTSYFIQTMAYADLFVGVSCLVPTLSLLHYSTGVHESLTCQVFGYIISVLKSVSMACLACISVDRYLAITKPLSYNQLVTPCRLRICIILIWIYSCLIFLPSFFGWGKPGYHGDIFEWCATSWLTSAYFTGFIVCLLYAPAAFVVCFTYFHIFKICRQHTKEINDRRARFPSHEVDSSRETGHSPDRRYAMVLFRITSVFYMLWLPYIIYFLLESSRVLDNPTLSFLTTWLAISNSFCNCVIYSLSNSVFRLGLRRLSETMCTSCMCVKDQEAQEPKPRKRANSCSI

c1ccc2c(c1)N=C(N1CCNCC1)c1ccccc1N2 [C21, 11-(1-piperazinyl)-5H-dibenzo[b,e][1,4]diazepine]
FOLD OVER BASAL [1]: 0.7 fold and 0.9 fold and 0.6 fold
FOLD OVER BASAL [2]: 1.2 fold and 0.8 fold
FOLD OVER BASAL [3]: 8.7 fold and 13.6 fold and 9.4 fold and 16.1 fold
FOLD OVER BASAL [4]: 1 fold and 1.1 fold and 0.9 fold
FOLD OVER BASAL [5]: 1.1 fold and 0.8 fold and 0.9 fold
FOLD OVER BASAL [6]: 1.2 fold and 0.8 fold and 0.6 fold and 0.7 fold
FOLD OVER BASAL [7]: 0.6 fold and 1.2 fold and 0.9 fold and 0.7 fold
FOLD OVER BASAL [8]: 1.1 fold and 0.9 fold and 1.2 fold
FOLD OVER BASAL [9]: 1.6 fold and 0.9 fold and 0.8 fold
FOLD OVER BASAL [10]: 1.8 fold and 0.9 fold and 1.1 fold and 1.2 fold
FOLD OVER BASAL [11]: 0.6 fold and 1 fold
FOLD OVER BASAL [12]: 1.4 fold and 1.2 fold and 1.3 fold and 1 fold
FOLD OVER BASAL [13]: 0.6 fold and 0.8 fold and 0.9 fold
FOLD OVER BASAL [14]: 0.7 fold and 1 fold and 0.5 fold and 0.9 fold
FOLD OVER BASAL [15]: 1.1 fold and 1.4 fold and 0.8 fold and 1 fold
FOLD OVER BASAL [16]: 0.6 fold and 1.1 fold and 0.8 fold
FOLD OVER BASAL [17]: 0.8 fold and 1.3 fold and 1.5 fold and 1.1 fold
FOLD OVER BASAL [18]: 1.3 fold and 1.2 fold and 0.7 fold and 1.1 fold
FOLD OVER BASAL [19]: 1.4 fold and 0.8 fold and 1.3 fold
FOLD OVER BASAL [20]: 0.6 fold and 1 fold and 0.8 fold
FOLD OVER BASAL [21]: 0.7 fold and 0.8 fold
FOLD OVER BASAL [22]: 1.5 fold and 0.8 fold and 1 fold and 0.9 fold
FOLD OVER BASAL [23]: 0.9 fold and 1 fold and 1.1 fold and 1.3 fold
FOLD OVER BASAL [24]: 1.6 fold and 1.5 fold and 1.7 fold
FOLD OVER BASAL [25]: 0.5 fold and 0.7 fold and 0.6 fold
FOLD OVER BASAL [26]: 0.6 fold and 0.5 fold
FOLD OVER BASAL [27]: 1.4 fold and 1.3 fold and 1 fold and 0.7 fold
FOLD OVER BASAL [28]: 0.9 fold and 0.8 fold and 1 fold
FOLD OVER BASAL [29]: 0.6 fold and 0.8 fold and 1 fold and 0.7 fold
FOLD OVER BASAL [30]: 0.4 fold and 0.6 fold
FOLD OVER BASAL [31]: 1 fold and 1.2 fold and 0.9 fold and 1.3 fold
FOLD OVER BASAL [32]: 0.7 fold and 0.6 fold
FOLD OVER BASAL [33]: 0.8 fold and 1 fold and 0.6 fold

Source: article PMC6407913, “DREADD Agonist 21 Is an Effective Agonist for Muscarinic-Based DREADDs in Vitro and in Vivo” (ACS Pharmacology & Translational Science, 2018)
